From patent US20070009614A1, “Composition and method for treating hypertension” (Northern Sydney Area Health Service, priority 2002, published 2007)

Experiments:
[1] = reported in literature (refs 15-17); cited from earlier work
[2] = tested on: elderly patients with systolic hypertension; assay: Group I: double-blind randomised crossover study of single doses in patients with systolic hypertension, no baseline angiotensin II inhibition; details: for Sitting brachial blood pressure systolic: at 11.00 h after single dose at 08.00 h (ISMN 60 mg, captopril 25 mg, eprosartan 600 mg), placebo 173 ± 3; for Sitting brachial blood pressure systolic / Heart rate (sitting) / Sitting brachial blood pressure diastolic / Standing brachial blood pressure diastolic / Standing brachial blood pressure systolic / decrease in P1 (aortic first peak pressure) at nadir / decrease in P2 (augmentation pressure) at nadir: mean ± SEM; for Heart rate (sitting) / Sitting brachial blood pressure diastolic / Standing brachial blood pressure diastolic / Standing brachial blood pressure systolic: at 11.00 h after single dose at 08.00 h; for Heart rate (sitting): placebo 60 ± 4; for Sitting brachial blood pressure diastolic: placebo 82 ± 3; for Standing brachial blood pressure diastolic: placebo 83 ± 3; for Standing brachial blood pressure systolic: placebo 166 ± 4; for effect on augmentation index: post-dose observation period; for effect on aortic systolic blood pressure: ISMN and captopril P<0.0001, eprosartan P<0.001; for aortic systolic pressure lower than control at nadir of hypotensive effect: nadir ISMN 10.00 h, captopril 11.00 h, eprosartan 09.00 h
Source text: The subjects were sixteen patients with long-standing hypertension, referred from their family physicians after having undergone treatment trials using a variety of conventional antihypertensive agents without reaching satisfactory control of systolic blood pressure. […] Plasma creatinine concentration was <0.15 mmol/l in every case. There was a history of myocardial infarction Or coronary bypass grafting in eight subjects, of peripheral vascular disease in four, and of diabetes mellitus (not requiring medication) in one. All patients were fully ambulant without symptomatic cardiac disease or known vascular aneurysm. Their current regimen of antihypertensive therapy had been stable for three weeks or more, and was continued unchanged through the present study. None had received nitrate therapy previously. Two different study protocols were used. One patient participated in both protocols with a 15-month break in between. Entry to either study required that systolic blood pressure should be between 150 and 200 mmHg, and that diastolic blood pressure should be equal to or less than 100 mmHg.
Group I protocol. […] Their baseline anti-hypertensive therapy, which excluded ACE inhibitors and angiotensin II receptor antagonists, consisted of one to three of the following drugs in conventional dosage:. diuretics (7 cases), beta blockers (7), prazosin (1), amlodipine (4), nifedipine controlled-release formulation (2). […] The pulse wave and pulse rate were measured at the same intervals. Between observations, the subjects engaged in sedentary recreational activities in a temperature-controlled environment.
Brachial blood pressure was recorded by sphygmomanometer, and pulse wave tonometry was performed at the radial artery with the patient seated. The aortic pulse wave form was determined and the aortic first peak pressure (P1) and augmentation pressure (P2) were quantified by computer software (SphygmoCor, AtCor Medical, Sydney), as previously reported.^13 Augmentation index (P2 expressed as % of pulse pressure) described the magnitude of wave reflection. Statistical analysis was by repeated measures analysis of variance using PRISM (GraphPad Software Inc., San Diego, Calif.) and post-hoc paired t tests. Values given are mean±SEM.

[3] = tested on: elderly patients with systolic hypertension on chronic angiotensin II inhibitors; assay: Group II: double-blind randomised crossover study of single-dose ISMN in patients with AII inhibition at baseline; assay type: in vivo, human; details: for decrease in sitting diastolic pressure: not significant
Experimental: None had received nitrate therapy previously. Two different study protocols were used. […] Group II protocol. […] The two study days were one to two weeks apart. Observations were made from 0800 h to 1600 h as in Group I. These subjects differed from Group I in that they were receiving treatment at study entry with ACE inhibitor or angiotensin II receptor antagonist drugs, as follows: monopril 10 mg/d (1 case), captopril 50 mg/d (1), ramipril 10 mg/day (1), ramipril 10 mg/d and candesartan 16 mg/d (1), irbesartan 300 mg/d (1), telmisartan 40 mg/d (1). Their other baseline antihypertensive drug therapy consisted of 1-2 of the following agents in conventional dosage: hydrochlorthiazide (1), beta blockers (2), amlodipine (1), diltiazem controlled-delivery formulation (2). […] Values given are mean±SEM.

| SMILES | time to reach peak plasma concentration [1] [h] | Sitting brachial blood pressure systolic ([2]; Group I) [mm Hg] | Heart rate (sitting) ([2]; Group I) [bpm] | Sitting brachial blood pressure diastolic ([2]; Group I) [mm Hg] | Standing brachial blood pressure diastolic ([2]; Group I) [mm Hg] | Standing brachial blood pressure systolic ([2]; Group I) [mm Hg] | effect on augmentation index ([2]; Group I) | effect on heart rate ([2]; Group I, single dose) | effect on aortic systolic blood pressure ([2]; Group I, single dose) | decrease in P1 (aortic first peak pressure) at nadir ([2]; Group I, single dose) [mmHg] | decrease in P2 (augmentation pressure) at nadir ([2]; Group I, single dose) [mm Hg] | aortic systolic pressure lower than control at nadir of hypotensive effect ([2]; Group I, single dose) [mm Hg] | also measured |
| --- | --- | --- | --- | --- | --- | --- | --- | --- | --- | --- | --- | --- | --- |
| C[C@H](CS)C(=O)N1CCC[C@H]1C(=O)O [Captopril, captopril] | 1 | 148 ± 5 | 59 ± 4 | 78 ± 2 | 78 ± 2 | 143 ± 5 | Neither captopril nor eprosartan altered | not changed | significantly decreased | 9±2 | 9±3 | 23 | – |
| O=[N+]([O-])O[C@@H]1CO[C@H]2[C@@H]1OC[C@@H]2O [ISMN, isosorbide mononitrate] | 3 to 4 | 145 ± 5 | 60 ± 5 | 77 ± 3 | 77 ± 3 | 139 ± 4 | significantly reduced | – | significantly decreased | 11±2 | 19±3 | 34 | average post-dose decrease in augmentation index ([3]; Group II (baseline AII inhibition), ISMN 60 mg single dose, control 38.5±1.1%): 16±1%; average post-dose decrease in aortic systolic pressure ([3]; Group II (baseline AII inhibition), ISMN 60 mg single dose, control 154±2): 34±3 mmHg; effect on sitting and standing brachial systolic blood pressure ([3]; Group II, P<0.0001): decreased; decrease in sitting brachial systolic blood pressure ([3]; Group II, at 12.00 h, from control value 176, P<0.001): 37 mm Hg; decrease in sitting diastolic pressure ([3]; Group II, at 12.00 h): 13 mm Hg; decrease in sitting brachial systolic blood pressure ([3]; Group II, at 16.00 h, from control value 173, P<0.001): 34 mm Hg; decrease in sitting diastolic pressure ([3]; Group II, at 16.00 h): 10 mm Hg; Heart rate, overall mean value ([3]; Group II, increased from mean value of 60, P<0.001): 64 bpm; peak decrease in augmentation index ([2]; FIGS. 1 and 2 (Groups I and II)): approximately 50 % of control; average post-dose decrease in augmentation index ([2]; Group I, ISMN 60 mg single dose, control 37.9±1.0%): 15±1%; average post-dose decrease in aortic systolic pressure ([2]; Group I, ISMN 60 mg single dose, control 160±2): 29±2 mmHg; Heart rate average post-dose increase ([2]; Group I, single dose, P<0.001): 3±1 b.p.m.; duration of depressor effect ([2]; extended-release preparation, observation to 16.00 h): sustained through the remainder of the observation period |
| CCCCc1ncc(/C=C(\Cc2cccs2)C(=O)O)n1Cc1ccc(C(=O)O)cc1 [Eprosartan, eprosartan] | 1 to 2 | 158 ± 5 | 59 ± 4 | 78 ± 3 | 83 ± 4 | 152 ± 4 | Neither captopril nor eprosartan altered | not changed | significantly decreased | 4±2 | 6±3 | 15 | – |
